# Assay results from patent US8815882B2, “Pyrazole aminopyrimidine derivatives as LRRK2 modulators” (Genentech, Inc., priority 2010, dated 2014).
# Target: T1, LRRK2 (Homo sapiens, UniProt Q5S007, G2019S)
# T1 construct: purchased Invitrogen PV4882 (lot 567054A)
# Assay: In Vitro LRRK2 Assay (LabChip 3000, fluorescently-labeled peptide substrate, ATP)
# Format: biochemical
# Settings: read-out: LRRK2 Ki (KI), Table 8
# Procedure, shortened: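 Read-out was LabChip capillary electrophoresis, resolving phospho- from non-phospho-peptide by fluorescence intensity. The kinase reaction combined enzyme, ATP, test compound and labeled peptide (4 μM working dilution) for 2 h in darkness before stop solution. Values were reported as Ki, from a tight-binding model with Et, S and Km, or as IC50 or percent inhibition.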
# T1 sequence (Q5S007 whole entry G2019S): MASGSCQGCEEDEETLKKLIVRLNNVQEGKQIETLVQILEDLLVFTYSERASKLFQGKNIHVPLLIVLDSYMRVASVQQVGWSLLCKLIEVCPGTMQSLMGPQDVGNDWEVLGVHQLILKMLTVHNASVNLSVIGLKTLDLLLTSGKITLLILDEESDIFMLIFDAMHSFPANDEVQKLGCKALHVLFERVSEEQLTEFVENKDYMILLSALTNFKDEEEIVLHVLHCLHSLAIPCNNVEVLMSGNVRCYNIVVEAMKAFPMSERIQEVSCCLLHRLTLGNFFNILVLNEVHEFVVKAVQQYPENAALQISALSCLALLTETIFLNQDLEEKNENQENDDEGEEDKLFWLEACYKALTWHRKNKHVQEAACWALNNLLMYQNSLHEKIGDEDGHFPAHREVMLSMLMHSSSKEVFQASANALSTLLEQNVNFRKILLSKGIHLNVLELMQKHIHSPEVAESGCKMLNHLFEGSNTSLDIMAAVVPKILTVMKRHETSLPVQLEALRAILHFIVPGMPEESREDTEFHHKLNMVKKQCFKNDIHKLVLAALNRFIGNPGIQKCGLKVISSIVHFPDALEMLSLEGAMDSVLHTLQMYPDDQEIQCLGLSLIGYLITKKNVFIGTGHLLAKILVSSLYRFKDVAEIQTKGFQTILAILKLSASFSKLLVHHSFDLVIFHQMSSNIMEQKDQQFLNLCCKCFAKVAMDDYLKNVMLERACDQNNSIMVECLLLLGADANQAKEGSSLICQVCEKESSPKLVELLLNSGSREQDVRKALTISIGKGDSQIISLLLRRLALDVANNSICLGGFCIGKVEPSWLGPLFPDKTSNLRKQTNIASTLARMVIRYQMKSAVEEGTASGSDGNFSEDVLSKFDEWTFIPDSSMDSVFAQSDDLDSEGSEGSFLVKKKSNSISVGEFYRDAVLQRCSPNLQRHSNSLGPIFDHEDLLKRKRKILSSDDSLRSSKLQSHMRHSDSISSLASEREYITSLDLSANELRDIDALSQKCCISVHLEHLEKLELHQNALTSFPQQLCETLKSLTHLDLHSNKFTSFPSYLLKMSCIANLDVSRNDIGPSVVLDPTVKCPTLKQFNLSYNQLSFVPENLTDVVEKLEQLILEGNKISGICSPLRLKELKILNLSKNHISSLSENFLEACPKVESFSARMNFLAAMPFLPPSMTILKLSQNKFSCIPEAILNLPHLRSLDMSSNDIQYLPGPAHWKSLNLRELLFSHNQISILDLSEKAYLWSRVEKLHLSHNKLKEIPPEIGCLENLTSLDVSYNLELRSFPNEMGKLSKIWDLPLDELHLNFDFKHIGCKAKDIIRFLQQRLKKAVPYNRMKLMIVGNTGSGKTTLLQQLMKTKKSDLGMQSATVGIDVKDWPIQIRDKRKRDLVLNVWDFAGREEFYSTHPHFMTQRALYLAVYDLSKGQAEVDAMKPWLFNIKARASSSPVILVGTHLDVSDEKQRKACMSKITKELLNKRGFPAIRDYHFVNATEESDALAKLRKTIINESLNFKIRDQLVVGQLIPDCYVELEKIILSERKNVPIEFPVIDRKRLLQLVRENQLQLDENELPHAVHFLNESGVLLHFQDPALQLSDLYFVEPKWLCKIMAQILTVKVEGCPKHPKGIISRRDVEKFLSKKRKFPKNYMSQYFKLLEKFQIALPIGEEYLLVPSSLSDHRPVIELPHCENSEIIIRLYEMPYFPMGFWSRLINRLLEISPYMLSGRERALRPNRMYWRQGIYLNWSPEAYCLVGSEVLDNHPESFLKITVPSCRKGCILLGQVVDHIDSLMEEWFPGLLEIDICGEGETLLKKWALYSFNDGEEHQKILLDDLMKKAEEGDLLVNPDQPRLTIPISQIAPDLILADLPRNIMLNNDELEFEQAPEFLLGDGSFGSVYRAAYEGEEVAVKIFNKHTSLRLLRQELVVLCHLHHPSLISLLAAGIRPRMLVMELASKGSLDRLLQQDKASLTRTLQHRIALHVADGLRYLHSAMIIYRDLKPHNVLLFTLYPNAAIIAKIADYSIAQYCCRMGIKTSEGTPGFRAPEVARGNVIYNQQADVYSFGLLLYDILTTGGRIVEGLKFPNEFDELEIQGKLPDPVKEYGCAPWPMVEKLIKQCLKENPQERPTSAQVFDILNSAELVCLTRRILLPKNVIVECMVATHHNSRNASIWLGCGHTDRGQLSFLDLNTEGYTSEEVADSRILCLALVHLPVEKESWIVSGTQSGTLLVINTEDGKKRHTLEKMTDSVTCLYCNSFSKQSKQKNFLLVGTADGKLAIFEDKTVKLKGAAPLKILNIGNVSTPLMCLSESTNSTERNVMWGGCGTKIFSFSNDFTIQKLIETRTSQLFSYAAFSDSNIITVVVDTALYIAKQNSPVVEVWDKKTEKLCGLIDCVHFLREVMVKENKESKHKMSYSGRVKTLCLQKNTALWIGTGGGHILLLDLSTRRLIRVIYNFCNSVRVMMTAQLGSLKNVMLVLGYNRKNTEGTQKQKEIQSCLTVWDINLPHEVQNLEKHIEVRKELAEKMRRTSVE
row,Ki [nM],Compound
1,6.9,"CNc1nc(Nc2cn(-c3ccnc(C)c3)nc2C)ncc1C(F)(F)F [Example 143, N4-methyl-N2-(3-methyl-1-(2-methylpyridin-4-yl)-1H-pyrazol-4-yl)-5-(trifluoromethyl) pyrimidine-2,4-diamine]"
2,0.9,"CCNc1nc(Nc2cn(CC3(C)COC3)nc2C)ncc1C(F)(F)F [Example 144, N4-ethyl-N2-(3-methyl-1-((3-methyloxetan-3-yl)methyl)-1H-pyrazol-4-yl)-5-(trifluoromethyl) pyrimidine-2,4-diamine]"
3,1.7,"CNc1nc(Nc2cnn(C3CC3)c2Cl)ncc1C(F)(F)F [Example 145, N2-(5-chloro-1-cyclopropyl-1H-pyrazol-4-yl)-N4-methyl-5-(trifluoromethyl) pyrimidine-2,4-diamine]"
4,0.3,"CNc1nc(Nc2cnn(CC3CC3)c2Cl)ncc1C(F)(F)F [Example 146, N2-(5-chloro-1-(cyclopropyl-methyl)-1H-pyrazol-4-yl)-N4-methyl-5-(trifluoromethyl) pyrimidine-2,4-diamine]"
5,17,"CNc1nc(Nc2cnn(-c3ccc(C#N)cc3)c2C)ncc1C(F)(F)F [Example 147, 4-(5-methyl-4-(4-(methylamino)-5-(trifluoromethyl)pyrimidin-2-ylamino)-1H-pyrazol-1-yl)benzonitrile]"
6,0.3,"CNc1nc(Nc2cn(-c3ccc(C#N)cc3)nc2C)ncc1C(F)(F)F [Example 148, 4-(3-methyl-4-(4-(methylamino)-5-(trifluoromethyl)pyrimidin-2-ylamino)-1H-pyrazol-1-yl)benzonitrile]"
7,6.8,"CNc1nc(Nc2cn(C3CCOC3)nc2C)ncc1C(F)(F)F (stereo not drawn) [Example 149, N4-methyl-N2-(3-methyl-1-(tetrahydrofuran-3-yl)-1H-pyrazol-4-yl)-5-(trifluoromethyl) pyrimidine-2,4-diamine]"
8,5.1,"CNc1nc(Nc2cnn(C3CCOC3)c2C)ncc1C(F)(F)F (stereo not drawn) [Example 150, N4-methyl-N2-(5-methyl-1-(tetrahydrofuran-3-yl)-1H-pyrazol-4-yl)-5-(trifluoromethyl) pyrimidine-2,4-diamine]"
9,1.1,"CCNc1nc(Nc2cnn(C3CCC(=O)N(C)C3)c2C)ncc1C(F)(F)F (stereo not drawn) [Example 151, 5-(4-(4-(ethylamino)-5-(trifluoromethyl)pyrimidin-2-ylamino)-5-methyl-1H-pyrazol-1-yl)-1-methylpiperidin-2-one]"
10,7.3,"CCNc1nc(Nc2cn(C3CCC(=O)N(C)C3)nc2C)ncc1C(F)(F)F (stereo not drawn) [Example 152, 5-(4-(4-(ethylamino)-5-(trifluoromethyl)pyrimidin-2-ylamino)-3-methyl-1H-pyrazol-1-yl)-1-methylpiperidin-2-one]"
11,9.7,"CNc1nc(Nc2cn(C3CCC(=O)NC3)nc2C)ncc1C(F)(F)F (stereo not drawn) [Example 153, 5-(3-methyl-4-(4-(methylamino)-5-(trifluoromethyl)pyrimidin-2-ylamino)-1H-pyrazol-1-yl)piperidin-2-one]"
12,2.2,"CNc1nc(Nc2cnn(C3CCC(=O)NC3)c2C)ncc1C(F)(F)F (stereo not drawn) [Example 154, 5-(5-methyl-4-(4-(methylamino)-5-(trifluoromethyl)pyrimidin-2-ylamino)-1H-pyrazol-1-yl)piperidin-2-one]"
13,0.3,"CNc1nc(Nc2cnn(-c3ccc(C(=O)N(C)C)cc3)c2C)ncc1C(F)(F)F [Example 156, N,N-dimethyl-4-(5-methyl-4-(4-(methylamino)-5-(trifluoromethyl)pyrimidin-2-ylamino)-1H-pyrazol-1-yl)benzamide]"
14,0.3,"CCNc1nc(Nc2cnn(-c3ccc(C(=O)N(C)C)cc3)c2C)ncc1C(F)(F)F [Example 157, 4-(4-(4-(ethylamino)-5-(trifluoromethyl)pyrimidin-2-ylamino)-5-methyl-1H-pyrazol-1-yl)-N,N-dimethylbenzamide]"
15,0.3,"CCNc1nc(Nc2cnn(C3CCOCC3)c2C)ncc1C(F)(F)F [Example 158, N4-ethyl-N2-(5-methyl-1-(tetrahydro-2H-pyran-4-yl)-1H-pyrazol-4-yl)-5-(trifluoromethyl) pyrimidine-2,4-diamine]"
16,3.9,"CCNc1nc(Nc2cn(C3CCOCC3)nc2C)ncc1C(F)(F)F [Example 159, N4-ethyl-N2-(3-methyl-1-(tetrahydro-2H-pyran-4-yl)-1H-pyrazol-4-yl)-5-(trifluoromethyl) pyrimidine-2,4-diamine]"
17,0.3,"CCNc1nc(Nc2cn(S(C)(=O)=O)nc2C)ncc1C(F)(F)F [Example 160, N4-ethyl-N2-(3-methyl-1-(methylsulfonyl)-1H-pyrazol-4-yl)-5-(trifluoromethyl) pyrimidine-2,4-diamine]"
18,0.3,"CNc1nc(Nc2cn(-c3ccc(S(=O)(=O)C4CC4)cc3)nc2C)ncc1C(F)(F)F [Example 161, N2-(1-(4-(cyclopropyl-sulfonyl)phenyl)-3-methyl-1H-pyrazol-4-yl)-N4-methyl-5-(trifluoromethyl) pyrimidine-2,4-diamine]"

row,Ki [nM],Compound
1,0.3,"CCNc1nc(Nc2cnn(-c3ccc(C#N)cc3)c2C)ncc1C(F)(F)F [Example 162, 4-(4-(4-(ethylamino)-5-(trifluoromethyl)pyrimidin-2-ylamino)-5-methyl-1H-pyrazol-1-yl)benzonitrile]"
2,0.3,"CCNc1nc(Nc2cnn(-c3ccc(S(C)(=O)=O)cc3)c2C)ncc1C(F)(F)F [Example 163, N4-ethyl-N2-(5-methyl-1-(4-(methylsulfonyl)phenyl)-1H-pyrazol-4-yl)-5-(trifluoromethyl) pyrimidine-2,4-diamine]"
3,5.7,"CNc1nc(Nc2cn(-c3ccc(C(=O)N(C)C)cc3)nc2C)ncc1C(F)(F)F [Example 164, N,N-dimethyl-4-(3-methyl-4-(4-(methylamino)-5-(trifluoromethyl)pyrimidin-2-ylamino)-1H-pyrazol-1-yl)benzamide]"
4,1.2,"CNc1nc(Nc2cnn(CC3CC3)c2C)ncc1C(F)(F)F [Example 165, N2-(1-(cyclopropyl-methyl)-5-methyl-1H-pyrazol-4-yl)-N4-methyl-5-(trifluoromethyl) pyrimidine-2,4-diamine]"
5,4.5,"CNc1nc(Nc2cn(CC3CC3)nc2C)ncc1C(F)(F)F [Example 166, N2-(1-(cyclopropyl-methyl)-3-methyl-1H-pyrazol-4-yl)-N4-methyl-5-(trifluoromethyl) pyrimidine-2,4-diamine]"
6,18.8,"CNc1nc(Nc2cnn(-c3ccc(S(=O)(=O)C4CC4)cc3)c2C)ncc1C(F)(F)F [Example 167, N2-(1-(4-(cyclopropyl-sulfonyl)phenyl)-5-methyl-1H-pyrazol-4-yl)-N4-methyl-5-(trifluoromethyl) pyrimidine-2,4-diamine]"
7,9.5,"CNc1nc(Nc2cnn(C3COC3)c2Cl)ncc1C(F)(F)F [Example 168, N2-(5-chloro-1-(oxetan-3-yl)-1H-pyrazol-4-yl)-N4-methyl-5-(trifluoromethyl) pyrimidine-2,4-diamine]"
8,2.2,"CCNc1nc(Nc2cnn(CC3(C)COC3)c2C)ncc1C(F)(F)F [Example 169, N4-ethyl-N2-(5-methyl-1-((3-methyloxetan-3-yl)methyl)-1H-pyrazol-4-yl)-5-(trifluoromethyl) pyrimidine-2,4-diamine]"
9,2,"CNc1nc(Nc2cn(S(=O)(=O)C3CC3)nc2C)ncc1C(F)(F)F [Example 170, N2-(1-(cyclopropyl-sulfonyl)-3-methyl-1H-pyrazol-4-yl)-N4-methyl-5-(trifluoromethyl) pyrimidine-2,4-diamine]"
10,0.9,"CCNc1nc(Nc2cn(S(=O)(=O)C3CC3)nc2C)ncc1C(F)(F)F [Example 171, N2-(1-(cyclopropyl-sulfonyl)-3-methyl-1H-pyrazol-4-yl)-N4-ethyl-5-(trifluoromethyl) pyrimidine-2,4-diamine]"
11,7,"Cc1c(Nc2ncc(Cl)c(NCC(F)F)n2)cnn1C [Example 172, 5-chloro-N4-(2,2-difluoroethyl)-N2-(1,5-dimethyl-1H-pyrazol-4-yl)pyrimidine-2,4-diamine]"
12,484,"Cc1nc(Nc2cn(-c3ccc(S(C)(=O)=O)cc3)nc2C)ncc1Cl [Example 173, 5-chloro-4-methyl-N-(3-methyl-1-(4-(methylsulfonyl)phenyl)-1H-pyrazol-4-yl)pyrimidin-2-amine]"
13,1.1,"CCNc1nc(Nc2cnn(-c3ccc(S(=O)(=O)C4CC4)cc3)c2C)ncc1C(F)(F)F [Example 174, N2-(1-(4-(cyclopropyl-sulfonyl)phenyl)-5-methyl-1H-pyrazol-4-yl)-N4-ethyl-5-(trifluoromethyl) pyrimidine-2,4-diamine]"
14,6.8,"CNc1nc(Nc2cnn(C3CCN(C(=O)C(C)C)CC3)c2C)ncc1C(F)(F)F [Example 175, 2-methyl-1-(4-(5-methyl-4-(4-(methylamino)-5-(trifluoromethyl)pyrimidin-2-ylamino)-1H-pyrazol-1-yl)piperidin-1-yl)propan-1-one]"
15,11,"CCNc1nc(Nc2ccnn2C)ncc1C(F)(F)F [Example 176, N4-ethyl-N2-(1-methyl-1H-pyrazol-5-yl)-5-(trifluoromethyl) pyrimidine-2,4-diamine]"
16,6.7,"CNc1nc(Nc2cn(C)nc2C2CC2)ncc1C(F)(F)F [Example 177, N2-(3-cyclopropyl-1-methyl-1H-pyrazol-4-yl)-N4-methyl-5-(trifluoromethyl) pyrimidine-2,4-diamine]"
17,12,"CNc1nc(Nc2cnn(C)c2C2CC2)ncc1C(F)(F)F [Example 178, N2-(5-cyclopropyl-1-methyl-1H-pyrazol-4-yl)-N4-methyl-5-(trifluoromethyl) pyrimidine-2,4-diamine]"
18,9,"CNc1nc(Nc2cnn(CC3(C)COC3)c2C)ncc1C(F)(F)F [Example 179, N4-methyl-N2-(5-methyl-1-((3-methyloxetan-3-yl)methyl)-1H-pyrazol-4-yl)-5-(trifluoromethyl) pyrimidine-2,4-diamine]"
